Laboratory results reported in patent publication US9757393B2 (priority 2015, dated 2017).

Tests used:
Type in all cases: in vivo, C57BL/6J mice
G6 Pase mRNA = experiment: Semiquantitative RT-PCR, liver tissue: G6 Pase; settings: HFD-fed mice
Procedure: (§1) Experimental Animals: the experiments are conducted under the guidelines of the Institutional Animal Care and Use Committee of Central Taiwan University of Science and Technology. As previously described, four-week-old male C57BL/6J mice (n=63) is purchased from the National Laboratory Animal Breeding and Research Center, Ministry of Science and Technology. After 1-week of acclimatization, mice are designed to initiate the study, and the study lasts for 12 weeks. […] The CON group and high-fat control (HF) group are given with vehicle only. The low-fat diet consisted of fat 10%, whereas the high-fat diet (HFD) consisted of fat 45% (of total energy, % kcal). The compositions of the experimental diets are shown as described. At the end of the study, food is derived from the animals (from 10 p.m. to 10 a.m.). On the next day, the mice are sacrificed, and blood and tissue are collected for analysis. Livers, skeletal muscles, and white adipose tissues (WATs) (including epididymal, mesenteric and retroperitoneal WAT) are excised and weighed, and then immediately stored in a freezer at −80° C. Heparin (30 units/mL) (Sigma) is added to blood samples. Plasma samples are collected by centrifugation at 1600 g for 15 min at 4° C. within 30 min, and plasma is obtained for insulin and leptin level analysis.
(§2) The experiment is performed as in a previously described protocol. Total RNA from the liver tissue is isolated with a Trizol reagent (Molecular Research Center, Inc., Cincinnati, Ohio, USA) according to the manufacturer's directions. Total RNA (1 μg) is reverse transcribed to cDNA with 5 μL of Moloney murine leukemia virus reverse transcriptase (Epicenter, Madison, Wis., USA) as a previously described protocol. […] The relative density of the band is evaluated using AlphaDigiDoc 1201 software (Alpha Innotech Co., San Leandro, Calif., USA). All of the measured PCR products are normalized to the amount of cDNA of GAPDH in each sample.

apo C-III mRNA = experiment: Semiquantitative RT-PCR, liver tissue: apo C-III; settings: HFD-fed mice
Procedure: as §1, §2

adiponectin mRNA = experiment: Semiquantitative RT-PCR, liver tissue: adiponectin; settings: HFD-fed mice, 40 mg/kg/day
Procedure: as §1, with “Heparin (30 units/mL) (Sigma) is added to blood samples. Plasma samples are collected by centrifugation at 1600 g for 15 min at 4° C. within 30 min, and plasma is obtained for insulin and leptin level analysis.” left out
The experiment is performed as in a previously described protocol. […] The relative density of the band is evaluated using AlphaDigiDoc 1201 software (Alpha Innotech Co., San Leandro, Calif., USA). All of the measured PCR products are normalized to the amount of cDNA of GAPDH in each sample.

CC(C)[C@@H](C)C=C[C@@H](C)[C@H]1CC[C@H]2C3=CCC4C[C@@H](O)CC[C@]4(C)C3=CC[C@]12C (stereo partly drawn) [ergostatrien-3β-ol, ergosta-7,9(11),22-trien-3β-ol]
mRNA level of G6 Pase (G6 Pase mRNA; 10 mg/kg/day): decreased | mRNA level of G6 Pase (G6 Pase mRNA; 20 mg/kg/day): decreased | mRNA level of G6 Pase (G6 Pase mRNA; 40 mg/kg/day): decreased | mRNA level of apo C-III (apo C-III mRNA; 10 mg/kg/day): decreased | mRNA level of apo C-III (apo C-III mRNA; 20 mg/kg/day): decreased | mRNA level of apo C-III (apo C-III mRNA; 40 mg/kg/day): decreased | mRNA level of adiponectin (adiponectin mRNA): increase
